Assay results as given in patent publication US6344473B1, “Imidazoles useful as nitric oxide synthase inhibitors” (G.D. Searle & Co., priority 2000, dated 2002).
Where a name gives a salt, the structure may show the parent alone.

How the values were obtained:
hecNOS = hecNOS (Homo sapiens, UniProt P29474); assay: Citrulline assay for nitric oxide synthase, human in vitro enzyme data, hecNOS; format: biochemical; details: human endothelial constitutive NOS
hiNOS = hiNOS (Homo sapiens, UniProt P35228); assay: Citrulline assay for nitric oxide synthase, human in vitro enzyme data, hiNOS; format: biochemical; details: human inducible NOS
hncNOS = hncNOS (Homo sapiens, UniProt P29475); assay: Citrulline assay for nitric oxide synthase, human in vitro enzyme data, hncNOS; format: biochemical; details: human neuronal constitutive NOS
[1] = test system: plasma nitrites induced by endotoxin (LPS); assay: Low Dose LPS in vivo low-endotoxin assay (plasma nitrites); details: mouse

IC50 (hecNOS) [mM]	IC50 (hiNOS) [µM]	IC50 (hncNOS) [µM]	SMILES	Low Dose LPS in vivo Effective Dose (p.o.), inhibition ([1]; 3 mg/kg/day p.o.) [% inh.]	Low Dose LPS in vivo Effective Dose (p.o.), inhibition ([1]; 10 mg/kg/day p.o.) [% inh.]
1.43	124	200	CCOC(=O)[C@@H](N)CCCCn1c(C)noc1=O [Example 3, ethyl αS-amino-4,5-dihydro-3-methyl-5-oxo-1,2,4-oxadiazole-4-hexanoate, monohydrochloride]	–	–
–	–	–	Cc1noc(=O)n1CCCCC(N)C(=O)O (centres unmarked) [Example 2, αS-amino-4,5-dihydro-3-methyl-5-oxo-1,2,4-oxadiazole-4-hexanoic acid, monohydrochloride]	39	42
> 1	> 1000	> 1000	Cc1noc(=O)n1CCCC[C@H](NC(=O)OC(C)(C)C)C(=O)O [Example 1, αS-[[(1,1-dimethylethoxy)carbonyl]amino]-4,5-dihydro-3-methyl-5-oxo-1,2,4-oxadiazole-4-hexanoic acid]	–	–
